According to patent US9782364B1, “Curcumin-based compositions and methods of use thereof” (priority 2015, dated 2017):

What was measured:
NFkB-p65 = assay: Western blot of cytoplasmic and nuclear NFkB-p65 and phospho-serine 276 NFkB-p65 in LPS-induced BV2 microglia; format: cell-based; conditions: BV2 cells, 22.0 μg/ml, 30 min pre-treatment then LPS 30 min; for inhibition of NFkB-p65 nucleotranslocation (cytosolic and nuclear NFkB-p65 levels): FIGS. 3 and 4; for inhibition of NFkB-p65 serine 276 phosphorylation: cytoplasmic and nuclear, FIGS. 5 and 6
Method: (§1) Western blot analysis was performed in multiple varying formats before optimization was achieved. The BV2 microglia cell line was cultured in Dulbecco's Modified Eagle's Medium (DMEM)—complete medium. The complete medium consisted of DMEM, 1% Ampicillin, and 10% Fetal Bovine Serum (FBS). BV2 microglia cells, at a cell count of approximately 2×10^6, were seeded in each well (6 wells per plate) with 2.0 ml complete medium and cultured overnight in a ThermaForma HepaFilter Series II Coe Incubator at 37° Celsius. Upon establishing confluence, subconfluent cells were washed out and the wells were prepared with drug pre-treatment after overnight incubation.
(§2) The test drugs (curcuminoids) were procured as follows: curcumin I research standard (03926) (ChromaDex Irvine, Calif. USA) (97.7% purity); curcumin II research standard (04230) (ChromaDex Irvine, Calif. USA) (97.3%); curcumin III research standard (B6938) (Sigma-Aldrich St. Louis, Mo., USA) (97.7% purity); curcumin extract (curcumin I—77.7%, curcumin II—16.9%, curcumin III—0.9%) research standard (03928) (ChromaDex Irvine, Calif. USA) (95.3% purity); and Lipopolysaccharide (LPS) from E. Coli (L2630) (Sigma-Aldrich St. Louis, Mo., USA).
Curcuminoids are not soluble in aqueous medium due to their hydrophobic characteristic. However, curcuminoid extracts are soluble in polar organic solvents, such as DMSO and acetone. In this Example, each curcuminoid preparation was first dissolved in DMSO. DMSO was used in the drug preparation at 0.2%. The drug/DMSO solution was subsequently dissolved in DMEM to achieve a final drug concentration for each curcuminoid preparation tested—22.0 μg/ml curcuminoid. The DMEM/drug solution was used to replace the culture DMEM well medium and incubated for 30 minutes at 37-degrees Celsius in a ThermaForma incubator. At 31 minutes, lipopolysaccharide (LPS at […] final well concentration) induction of the cells was executed, except for the DMSO-only well to stimulate cell response amidst drug pre-treatment and without drug treatment.
The plates were then incubated for another 30 minutes after LPS stimulation. Upon removal from incubation, the cell medium was carefully removed and cells were washed, scraped, and collected with phosphate-buffered saline (PBS). Using a ThermoFisher Scientific NE-PER Nuclear and Cytoplasmic Extraction Kit (obtained from ThermoFisher Scientific Burlington, Ontario Canada), the cells were lysed and the cytoplasmic and nuclear protein fractions were collected and separated with the intention of probing each fraction for subcellular changes in cytoplasmic and nuclear proteins (as described further below).
Total protein concentration for each fraction was determined using a Bio Rad Protein Assay that is based on the Bradford Assay (dye-binding method). The total protein concentration determination was made prior to test sample preparation for gel electrophoresis execution (described below). The protein concentration colorimetric assay kit was purchased from Bio Rad Laboratories Canada Ltd. (Montreal, Quebec Canada). Each test sample was then prepared for loading and subjected to gel electrophoresis (SDS-PAGE) using a BioRad stain free gel system (Catalog No. 161-0181) and subsequently transferred/blotted to a nitrocellulose membrane (ThermoFisher Scientific Product No. 88018), blocked, and prepared for primary antibody treatment for each target.
The targets analyzed in the Western Blot included NFkB-p65 and its nucleocytoplasmic translocation, as well as kinases (including MSK1) and their covalent modifications upstream of and involved in the regulation of NFkB. Antibodies against NFkB-p65 (Ab16502) were procured from Abcam Inc. (Toronto, Ontario, Canada) as a primary antibody to probe for total NFkB-p65 levels in both nuclear and cytoplasmic fractions. […]

MSK1 = target: T1, MSK1 (Mus musculus, UniProt Q8C050); assay: Western blot of cytoplasmic and nuclear MSK1 and phospho-serine 376 MSK1 in LPS-induced BV2 microglia; format: cell-based; conditions: BV2 cells, 22.0 μg/ml, 30 min pre-treatment then LPS 30 min
T1 construct: the cells were lysed and the cytoplasmic and nuclear protein fractions were collected; endogenous in cells; host or cells: BV2 microglia, LPS-induced
Method: as §1, §2
Curcuminoids are not soluble in aqueous medium due to their hydrophobic characteristic. However, curcuminoid extracts are soluble in polar organic solvents, such as DMSO and acetone. In this Example, each curcuminoid preparation was first dissolved in DMSO. DMSO was used in the drug preparation at 0.2%. The drug/DMSO solution was subsequently dissolved in DMEM to achieve a final drug concentration for each curcuminoid preparation tested—22.0 μg/ml curcuminoid. […]
Total protein concentration for each fraction was determined using a Bio Rad Protein Assay that is based on the Bradford Assay (dye-binding method). […]
The targets analyzed in the Western Blot included NFkB-p65 and its nucleocytoplasmic translocation, as well as kinases (including MSK1) and their covalent modifications upstream of and involved in the regulation of NFkB. […]

T1 sequence (Q8C050 whole entry): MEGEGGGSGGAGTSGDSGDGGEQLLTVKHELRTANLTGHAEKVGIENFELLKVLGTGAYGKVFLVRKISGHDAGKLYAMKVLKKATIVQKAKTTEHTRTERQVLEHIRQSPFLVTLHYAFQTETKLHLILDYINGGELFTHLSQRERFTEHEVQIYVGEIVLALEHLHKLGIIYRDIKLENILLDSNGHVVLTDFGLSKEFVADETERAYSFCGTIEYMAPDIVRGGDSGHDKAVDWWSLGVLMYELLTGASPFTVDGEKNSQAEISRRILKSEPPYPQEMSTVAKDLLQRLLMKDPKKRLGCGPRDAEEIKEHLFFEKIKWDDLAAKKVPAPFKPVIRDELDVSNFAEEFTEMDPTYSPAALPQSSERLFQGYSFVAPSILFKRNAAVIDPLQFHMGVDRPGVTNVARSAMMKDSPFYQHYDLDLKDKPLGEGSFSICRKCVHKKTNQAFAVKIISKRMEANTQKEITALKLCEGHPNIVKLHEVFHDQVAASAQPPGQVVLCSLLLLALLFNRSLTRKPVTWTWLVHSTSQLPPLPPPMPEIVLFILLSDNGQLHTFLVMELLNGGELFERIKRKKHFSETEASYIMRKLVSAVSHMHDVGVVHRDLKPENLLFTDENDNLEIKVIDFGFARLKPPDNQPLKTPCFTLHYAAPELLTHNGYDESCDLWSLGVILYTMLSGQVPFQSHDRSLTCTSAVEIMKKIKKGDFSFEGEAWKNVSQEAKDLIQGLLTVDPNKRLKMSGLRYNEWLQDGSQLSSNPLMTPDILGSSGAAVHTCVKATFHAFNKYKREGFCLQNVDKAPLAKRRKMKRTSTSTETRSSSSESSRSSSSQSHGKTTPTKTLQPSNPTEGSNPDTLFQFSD

SMILES | inhibition of NFkB-p65 nucleotranslocation (cytosolic and nuclear NFkB-p65 levels) (NFkB-p65) | inhibition of NFkB-p65 serine 276 phosphorylation (NFkB-p65) | inhibition of MSK1 serine 376 phosphorylation (MSK1; cytoplasmic and nuclear, FIGS. 9 and 10) | inhibition of MSK1 protein levels in the cytoplasm (MSK1; FIG. 7) | inhibition of MSK1 protein levels in the nucleus (MSK1; FIG. 8)
COc1cc(/C=C/C(=O)/C=C(O)/C=C/c2ccc(O)c(OC)c2)ccc1O [curcumin I, (1E,6E)-1,7-Bis(4-hydroxy-3-methoxyphenyl)-1,6-heptadiene-3,5-dione] | not significantly inhibited | moderately inhibit |  |  | 
COc1cc(/C=C/C(=O)CC(=O)/C=C/c2ccc(O)cc2)ccc1O [curcumin II, (1E,6E)-1-(4-Hydroxy-3-methoxyphenyl)-7-(4-hydroxyphenyl)hepta-1,6-diene-3,5-dione] | not significantly inhibited | moderately inhibit | inhibit |  | 
O=C(/C=C/c1ccc(O)cc1)CC(=O)/C=C/c1ccc(O)cc1 [curcumin III, (1E,6E)-1,7-bis(4-hydroxyphenyl)hepta-1,6-diene-3,5-dione] | not significantly inhibited | moderately inhibit |  | significantly inhibited and downregulated | significantly inhibited and downregulated
